This passage reports Ka and IC50 results from ChEMBL document CHEMBL3297721, “Protein-ligand interactions: probing the energetics of a putative cation-π interaction” (Bioorg Med Chem Lett, 2014).

Each structure is given as a SMILES string. Square brackets hold non-standard residues; d marks the D form. Peptide text beside a SMILES is read from it. * marks the point of attachment. pY = N[C@@H](Cc1ccc(OP(=O)(O)O)cc1)C(=O)O; Hydrocinnamoyl = O=C(CCc1ccccc1)*; Ac6c = NC1(C(=O)O)CCCCC1; Cbz = O=C(OCc1ccccc1)*

One test has as its target T1, Growth factor receptor-bound protein 2 (Homo sapiens, UniProt P62993). Description: Binding affinity to Grb2 SH2 domain (unknown origin) by isothermal titration calorimetry.
Target sequence in this assay (P62993 whole entry, looked up, the tested form may be a part): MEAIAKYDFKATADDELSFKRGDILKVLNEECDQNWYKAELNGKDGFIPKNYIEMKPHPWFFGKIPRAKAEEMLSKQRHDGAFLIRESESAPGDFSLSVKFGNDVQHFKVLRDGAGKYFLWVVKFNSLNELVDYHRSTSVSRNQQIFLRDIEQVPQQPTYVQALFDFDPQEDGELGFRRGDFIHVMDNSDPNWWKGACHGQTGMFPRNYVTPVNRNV
`Cn1cc(CCC(=O)N[C@@H](Cc2ccc(OP(=O)(O)O)cc2)C(=O)NC2(C(=O)N[C@@H](CC(N)=O)C(N)=O)CCCCC2)c2ccccc21` had a Ka of 11.4 ×10⁶ /M. In turn, `NC(=O)C[C@H](NC(=O)C1(NC(=O)[C@H](Cc2ccc(OP(=O)(O)O)cc2)NC(=O)OCc2ccccc2)CCCCC1)C(N)=O` (Cbz-[pY]-[Ac6c]-Asn-NH2) had a Ka of 6.5 ×10⁶ /M. For the molecule `NC(=O)C[C@H](NC(=O)C1(NC(=O)[C@H](Cc2ccc(OP(=O)(O)O)cc2)NC(=O)CCc2ccccc2)CCCCC1)C(N)=O` (Hydrocinnamoyl-[pY]-[Ac6c]-Asn-NH2), the Ka amounted to 23.4 ×10⁶ /M. In the case of `CC(=O)N[C@@H](Cc1ccc(OP(=O)(O)O)cc1)C(=O)NC1(C(=O)N[C@@H](CC(N)=O)C(N)=O)CCCCC1` (HELM PEPTIDE1{[ac].[O=C([C@H](Cc1ccc(OP(=O)(O)O)cc1)N[*:1])[*:2]].[O=C(C1(N[*:1])CCCCC1)[*:2]].N.[am]}$$$$V2.0), the Ka was 7 ×10⁶ /M. Turning to `NC(=O)C[C@H](NC(=O)C1(NC(=O)[C@H](Cc2ccc(OP(=O)(O)O)cc2)NC(=O)CCC2CCCCC2)CCCCC1)C(N)=O`, the Ka came to 28.8 ×10⁶ /M. `NC(=O)C[C@H](NC(=O)C1(NC(=O)[C@H](Cc2ccc(OP(=O)(O)O)cc2)NC(=O)OCc2cccc(N)c2)CCCCC1)C(N)=O` returned a Ka of 8.8 ×10⁶ /M.

The target of another test is T1, Growth factor receptor-bound protein 2. Briefly: Binding affinity to Grb2 SH2 domain (60 to 151) (unknown origin) expressed in Escherichia coli BL21(DE3) after overnight incubation by ELISA. On the technique in general: In an ELISA, binding on a coated surface is turned into a signal by an enzyme label.
Target sequence in this assay (P62993 whole entry, the tested form may be a part): as the sequence (P62993 whole entry, looked up, the tested form may be a part) above
The IC50 is the midpoint of a concentration-inhibition curve. Low values mean greater potency in that assay, high ones weaker potency in that assay. Take `C[C@](NC(=O)[C@H](Cc1ccc(OP(=O)(O)O)cc1)NC(=O)OCc1cccc(N)c1)(C(=O)N[C@@H](CC(N)=O)C(N)=O)c1ccc(OP(=O)(O)O)cc1`: the half-maximal inhibitory concentration (IC50) stood at 13 nM.
